Molecules are shown by their SMILES. Calls of active or inactive are those of the source. The rule behind the calls is not given here. Bounds are passed on as bounds.

Assay [1] addresses T1, Adenosine receptor A2a (Homo sapiens, UniProt P29274). Put plainly: Agonist activity at human recombinant adenosine A2A receptor transfected in CHO cells assessed as induction of adenylyl cyclase activity. The assay is classed as functional, cell-based.
For assay [2], the target named is T2, Adenosine receptor A2b (Homo sapiens) (UniProt P29275).
T2 sequence (whole entry): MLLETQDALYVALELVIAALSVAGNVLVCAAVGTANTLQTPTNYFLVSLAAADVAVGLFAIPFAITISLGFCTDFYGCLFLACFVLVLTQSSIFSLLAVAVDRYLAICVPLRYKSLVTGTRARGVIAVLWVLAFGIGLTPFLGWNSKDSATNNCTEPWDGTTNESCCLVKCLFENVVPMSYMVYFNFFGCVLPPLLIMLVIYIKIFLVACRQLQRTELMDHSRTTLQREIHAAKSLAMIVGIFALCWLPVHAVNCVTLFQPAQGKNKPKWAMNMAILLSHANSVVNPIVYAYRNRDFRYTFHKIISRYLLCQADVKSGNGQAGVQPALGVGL
Put plainly: (§1) Agonist activity at human recombinant adenosine A2B receptor transfected in CHO cells assessed as induction of adenylyl cyclase activity. The assay is classed as functional, cell-based.

In the next assay the target is T3, Adenosine receptor A2b (Homo sapiens, UniProt P29275).
T3 sequence (P29275 whole entry): T2 sequence (whole entry)
The assay is described as §1. The assay is classed as functional, cell-based.

The target of assay [3] is T4, Adenosine receptor A1 (Homo sapiens, UniProt P30542).
T4 sequence (P30542 whole entry): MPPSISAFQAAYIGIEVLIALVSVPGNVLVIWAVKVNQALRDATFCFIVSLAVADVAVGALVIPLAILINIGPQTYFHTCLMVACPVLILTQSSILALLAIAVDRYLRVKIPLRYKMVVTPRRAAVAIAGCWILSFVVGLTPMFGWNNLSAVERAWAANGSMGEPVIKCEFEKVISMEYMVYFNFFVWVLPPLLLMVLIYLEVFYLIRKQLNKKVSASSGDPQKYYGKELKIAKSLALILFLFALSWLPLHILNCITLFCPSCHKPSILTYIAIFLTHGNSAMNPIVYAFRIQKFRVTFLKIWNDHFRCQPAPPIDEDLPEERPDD
Put plainly: (§2) Agonist activity at human recombinant adenosine A1 receptor transfected in CHO cells assessed as inhibition of forskolin-induced adenylyl cyclase activity. It is filed as functional, cell-based.

The target of assay [4] is T5, Adenosine receptor A1 (Homo sapiens) (UniProt P30542).
T5 sequence (whole entry): T4 sequence (P30542 whole entry)
Described as §2. The assay is classed as functional, cell-based.

The target of assay [5] is T6, Adenosine receptor A3 (Homo sapiens, UniProt P0DMS8).
T6 sequence (P0DMS8 whole entry): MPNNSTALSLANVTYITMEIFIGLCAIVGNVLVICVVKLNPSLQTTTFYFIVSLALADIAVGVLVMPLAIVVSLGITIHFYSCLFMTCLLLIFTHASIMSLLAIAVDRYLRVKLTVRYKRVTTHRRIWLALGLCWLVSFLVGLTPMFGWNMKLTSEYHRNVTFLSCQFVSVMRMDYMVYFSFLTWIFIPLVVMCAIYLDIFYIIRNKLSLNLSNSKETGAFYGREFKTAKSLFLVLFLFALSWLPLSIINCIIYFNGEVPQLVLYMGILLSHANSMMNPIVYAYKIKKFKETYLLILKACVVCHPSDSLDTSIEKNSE
Put plainly: Displacement of [3H]-HEMADO from human recombinant adenosine A3 receptor transfected in CHO cells. It is filed as cell-based.

Assay [6] has as its target T6, Adenosine receptor A3. Put plainly: Antagonist activity at human recombinant adenosine A3 receptor transfected in CHO cells assessed as reversal of NECA-induced inhibition of forskolin-induced adenylyl cyclase activity. The assay is classed as functional, cell-based.
Assay [7] has as its target T1, Adenosine receptor A2a. Put plainly: Displacement of [3H]-NECA from human recombinant adenosine A2A receptor transfected in CHO cells. It is filed as cell-based. A general note: Displacement assays read how much labelled ligand stays bound in the presence of the test substance.
Assay [8] addresses T4, Adenosine receptor A1. Put plainly: Displacement of [3H]-CCPA from human recombinant adenosine A1 receptor transfected in CHO cells. It is filed as cell-based.
For assay [9], the species on record is Homo sapiens. Put plainly: Selectivity ratio of Ki for human recombinant adenosine A2A receptor to Ki for human recombinant adenosine A3 receptor.
Assay [10] is filed under the species Homo sapiens. Put plainly: Selectivity ratio of Ki for human recombinant adenosine A2A receptor to Ki for human recombinant adenosine A1 receptor.
The target of assay [11] is T2, Adenosine receptor A2b (Homo sapiens). Put plainly: Partial agonist activity at human recombinant adenosine A2B receptor transfected in CHO cells assessed as induction of adenylyl cyclase activity relative to NECA. The assay is classed as functional, cell-based.

T1 sequence (P29274 whole entry): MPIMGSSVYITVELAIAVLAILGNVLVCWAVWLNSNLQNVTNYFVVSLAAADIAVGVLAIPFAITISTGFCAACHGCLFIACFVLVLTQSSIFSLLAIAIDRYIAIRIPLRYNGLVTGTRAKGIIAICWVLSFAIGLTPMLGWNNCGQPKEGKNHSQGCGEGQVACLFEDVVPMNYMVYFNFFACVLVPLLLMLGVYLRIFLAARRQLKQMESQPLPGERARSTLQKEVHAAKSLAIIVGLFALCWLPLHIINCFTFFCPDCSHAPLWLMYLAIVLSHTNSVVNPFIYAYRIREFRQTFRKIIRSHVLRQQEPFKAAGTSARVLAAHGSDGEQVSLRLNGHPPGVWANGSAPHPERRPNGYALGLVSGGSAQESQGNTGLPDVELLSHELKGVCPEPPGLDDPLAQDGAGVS

For the compound `CCn1nnc([C@H]2O[C@@H](n3cnc4c(N)ncnc43)[C@H](O)[C@@H]2O)n1`, the concentration giving a half-maximal response (EC50) (commonly the concentration needed to bring the measured effect to its halfway point) on Adenosine receptor A2a [1] was 2.36 nM; at Adenosine receptor A2b, 347 nM; on Adenosine receptor A1 [3], 26.3 nM; at Adenosine receptor A3 [6], 93.6 nM. Also, the Efficacy (on Adenosine receptor A2a [1]; in [2]; in assay [4]) was greater than 90% in each case. Moreover, the results for the inhibition constant (Ki) at Adenosine receptor A3 [5], on Adenosine receptor A2a [7] and at Adenosine receptor A1 [8] were 3.86 nM, 8.12 nM and 0.919 nM, respectively.

Consider `CCn1nnc([C@H]2O[C@@H](n3cnc4c(N)nc(Cl)nc43)[C@H](O)[C@@H]2O)n1`, for which the EC50 worked out at 3.84 nM on Adenosine receptor A2a [1], 542 nM on Adenosine receptor A2b, 19.8 nM at Adenosine receptor A1 [3] and 31.7 nM on Adenosine receptor A3 [6]. Further, the Efficacy (on Adenosine receptor A2a [1]; in assay [2]; in assay [4]) was greater than 90% throughout. Further, the inhibitory constant (Ki) – broadly, a measure of affinity in units of concentration, obtained from inhibition or displacement – at Adenosine receptor A3 [5] came out at 1.8 nM; on Adenosine receptor A2a [7] it was 20.7 nM; at Adenosine receptor A1 [8], 0.966 nM.

Take `CCn1nnc([C@H]2O[C@@H](n3cnc4c(N[C@H]5C[C@@H]6CC[C@@H]5C6)nc(Cl)nc43)[C@H](O)[C@@H]2O)n1` (racemic): the EC50 at Adenosine receptor A2a [1] is 12.8 nM; at Adenosine receptor A2b, greater than 30000 nM; at Adenosine receptor A1 [3] it was 10.2 nM; at Adenosine receptor A3 [6], 721 nM. The Efficacy (at Adenosine receptor A2a [1]; in assay [2]; in [4]) was greater than 90% each time. Besides, the inhibitory constant (Ki) at Adenosine receptor A3 [5] turned out to be 16.1 nM; on Adenosine receptor A2a [7], 164 nM; at Adenosine receptor A1 [8], 0.728 nM.

`CCn1nnc([C@H]2O[C@@H](n3cnc4c(Nc5ccc(Cl)cc5F)ncnc43)[C@H](O)[C@@H]2O)n1`: the EC50 was 8.4 nM at Adenosine receptor A2a [1], 530 nM on Adenosine receptor A2b, 10.2 nM on Adenosine receptor A1 [3] and 33.9 nM on Adenosine receptor A3 [6]. Moreover, the Efficacy (on Adenosine receptor A2a [1]; in [2]; in assay [4]) was greater than 90% each time. Besides, the inhibition constant (Ki) stood at 2.61 nM on Adenosine receptor A3 [5], 77.5 nM on Adenosine receptor A2a [7] and 0.432 nM at Adenosine receptor A1 [8].

For `CCn1nnc([C@H]2O[C@@H](n3cnc4c(NC5CCCO5)ncnc43)[C@H](O)[C@@H]2O)n1` (stereo partly specified), the 50% effective concentration (EC50) on Adenosine receptor A2a [1] was 25.1 nM; at Adenosine receptor A2b it was 1340 nM; on Adenosine receptor A1 [3] it was 8.74 nM; on Adenosine receptor A3 [6], 61.9 nM. Moreover, the Efficacy (at Adenosine receptor A2a [1]; in assay [2]; in assay [4]) was greater than 90% each time. Besides, the Ki stood at 15.4 nM at Adenosine receptor A3 [5], 554 nM at Adenosine receptor A2a [7] and 1.23 nM on Adenosine receptor A1 [8].

As to `CCn1nnc([C@H]2O[C@@H](n3cnc4c(NC5CC5)ncnc43)[C@H](O)[C@@H]2O)n1`, the EC50 stood at 9.75 nM at Adenosine receptor A2a [1], 675 nM on Adenosine receptor A2b, 8.61 nM at Adenosine receptor A1 [3] and 51.5 nM on Adenosine receptor A3 [6]. Moreover, the Efficacy (at Adenosine receptor A2a [1]; in assay [2]; in [4]) was greater than 90% throughout. The Ki at Adenosine receptor A3 [5] worked out at 7.97 nM; on Adenosine receptor A2a [7], 93 nM; at Adenosine receptor A1 [8] it was 0.682 nM.

Take `CCn1nnc([C@H]2O[C@@H](n3cnc4c(NC)ncnc43)[C@H](O)[C@@H]2O)n1`: the half-maximal effective concentration (EC50) on Adenosine receptor A2a [1] stood at 1710 nM; on Adenosine receptor A2b, 1480 nM; at Adenosine receptor A1 [3], 97.2 nM; at Adenosine receptor A3 [6] it was 6.38 nM. The Efficacy (on Adenosine receptor A2a [1]; in assay [2]; in assay [4]) was greater than 90% each time. Besides, the results for the Ki at Adenosine receptor A3 [5], on Adenosine receptor A2a [7] and on Adenosine receptor A1 [8] were 0.478 nM, 778 nM and 3.56 nM, respectively.

For `CCn1nnc([C@H]2O[C@@H](n3cnc4c(N[C@H]5C[C@@H]6CC[C@@H]5C6)ncnc43)[C@H](O)[C@@H]2O)n1` (racemic), the concentration for a half-maximal effect (EC50) came out at 7.71 nM on Adenosine receptor A2a [1], 1010 nM at Adenosine receptor A2b, 4.66 nM at Adenosine receptor A1 [3] and 83.9 nM at Adenosine receptor A3 [6]. The Efficacy (on Adenosine receptor A2a [1]; in assay [2]; in assay [4]) was greater than 90% in each case. The inhibitory constant (Ki) at Adenosine receptor A3 [5] was determined as 8.85 nM; at Adenosine receptor A2a [7], 64.5 nM; on Adenosine receptor A1 [8], 0.453 nM.

As to `CCn1nnc([C@H]2O[C@@H](n3cnc4c(NC5CC5)nc(Cl)nc43)[C@H](O)[C@@H]2O)n1`, the EC50 on Adenosine receptor A2a [1] turned out to be 5.31 nM; on Adenosine receptor A2b, 1150 nM; on Adenosine receptor A1 [3], 3.62 nM; at Adenosine receptor A3 [6], 39.5 nM. Further, the Efficacy (on Adenosine receptor A2a [1]; in assay [2]; in [4]) was greater than 90% each time. Also, the Ki came to 3.9 nM on Adenosine receptor A3 [5], 62.2 nM on Adenosine receptor A2a [7] and 0.311 nM at Adenosine receptor A1 [8].

On to `CCn1nnc([C@H]2O[C@@H](n3cnc4c(NC)nc(Cl)nc43)[C@H](O)[C@@H]2O)n1`, for which the EC50 at Adenosine receptor A2a [1] stood at 238 nM; on Adenosine receptor A2b, 3510 nM; at Adenosine receptor A1 [3], 250 nM; at Adenosine receptor A3 [6] it was 7.69 nM. For the same compound, the Efficacy (at Adenosine receptor A2a [1]; in [4]) was greater than 90% each time. Further, the Ratio Ki in the assay filed under Homo sapiens [9] was 7800; in the assay listed under Homo sapiens [10], 390. For the same compound, the Ki came out at 0.429 nM at Adenosine receptor A3 [5], 3350 nM on Adenosine receptor A2a [7] and 8.59 nM at Adenosine receptor A1 [8]. Moreover, in [11], the Activity came out at 75%.

As for `OC[C@H]1O[C@@H](n2cnc3c(NC4CCCC4)nc(Cl)nc32)[C@H](O)[C@@H]1O`, the inhibition entry in assay [4] was “Active”.

Regarding `CCn1nnc([C@H]2O[C@@H](n3cnc4c(NC5CCCO5)nc(Cl)nc43)[C@H](O)[C@@H]2O)n1` (stereo partly specified), the 50% effective concentration (EC50) was 33.2 nM on Adenosine receptor A2a [1], 3150 nM on Adenosine receptor A2b, 7.42 nM on Adenosine receptor A1 [3] and 104 nM at Adenosine receptor A3 [6]. Besides, the Efficacy (at Adenosine receptor A2a [1]; in [2]; in assay [4]) was greater than 90% each time. Moreover, the Ki on Adenosine receptor A3 [5] was 9.62 nM; at Adenosine receptor A2a [7], 870 nM; on Adenosine receptor A1 [8], 1.06 nM.

For the compound `CCn1nnc([C@H]2O[C@@H](n3cnc4c(Nc5ccc(Cl)cc5F)nc(Cl)nc43)[C@H](O)[C@@H]2O)n1`, the concentration for a half-maximal effect (EC50) at Adenosine receptor A2a [1] is 28.8 nM; at Adenosine receptor A1 [3] it was 64.8 nM; at Adenosine receptor A3 [6] it was 37 nM. The Efficacy (at Adenosine receptor A2a [1]; in assay [2]; in [4]) was greater than 90% throughout. The Ki is 4.71 nM at Adenosine receptor A3 [5], 223 nM at Adenosine receptor A2a [7] and 1.67 nM on Adenosine receptor A1 [8].

Turning to `CCn1nnc([C@H]2O[C@@H](n3cnc4c(NCc5ccccc5I)nc(Cl)nc43)[C@H](O)[C@@H]2O)n1`, the EC50 came out at 9.04 nM at Adenosine receptor A2a [1], 834 nM at Adenosine receptor A2b, 64.9 nM at Adenosine receptor A1 [3] and 13.3 nM at Adenosine receptor A3 [6]. The Efficacy was greater than 90% in assay [4] and 76% in [11]. The Ki on Adenosine receptor A3 [5] was 0.588 nM; on Adenosine receptor A2a [7] it was 108 nM; on Adenosine receptor A1 [8], 2.39 nM.

The values are drawn from ChEMBL document CHEMBL3414438, “5'-C-Ethyl-tetrazolyl-N(6)-substituted adenosine and 2-chloro-adenosine derivatives as highly potent dual acting A1 adenosine receptor agonists and A3 adenosine receptor antagonists” (J Med Chem, 2015).
